The NIST ThermoML archive (doi:10.1021/je600554h)

Assay: xn = mol fraction of the nth substance listed
Conditions: 100 kPa, Liquid; for viscosity: Capillary tube (Ostwald / Ubbelohde) method

COC(C)(C)C [2-methoxy-2-methylpropane] + CCCCCCCC
Conditions | mass density [kg/m3] | viscosity [mPa·s]
273.15 K, x1 = 0.1019 | – | 0.685
273.15 K, x1 = 0.1059 | 721.15 | –
273.15 K, x1 = 0.2123 | 724.203 | –
273.15 K, x1 = 0.2189 | – | 0.651
273.15 K, x1 = 0.3019 | 727.065 | –
273.15 K, x1 = 0.3026 | – | 0.622
273.15 K, x1 = 0.4029 | – | 0.597
273.15 K, x1 = 0.4099 | 730.835 | –
273.15 K, x1 = 0.4995 | – | 0.57
273.15 K, x1 = 0.5053 | 734.583 | –
273.15 K, x1 = 0.6005 | 738.614 | –
273.15 K, x1 = 0.6099 | – | 0.549
273.15 K, x1 = 0.6934 | 742.992 | –
273.15 K, x1 = 0.7072 | – | 0.525
273.15 K, x1 = 0.7967 | 748.318 | –
273.15 K, x1 = 0.7981 | – | 0.494
273.15 K, x1 = 0.8941 | – | 0.472
273.15 K, x1 = 0.8975 | 754.329 | –
278.15 K, x1 = 0.1019 | – | 0.638
278.15 K, x1 = 0.1059 | 717.106 | –
278.15 K, x1 = 0.2123 | 720.082 | –
278.15 K, x1 = 0.2189 | – | 0.607
278.15 K, x1 = 0.3019 | 722.866 | –
278.15 K, x1 = 0.3026 | – | 0.583
278.15 K, x1 = 0.4029 | – | 0.559
278.15 K, x1 = 0.4099 | 726.533 | –
278.15 K, x1 = 0.4995 | – | 0.534
278.15 K, x1 = 0.5053 | 730.183 | –
278.15 K, x1 = 0.6005 | 734.106 | –
278.15 K, x1 = 0.6099 | – | 0.514
278.15 K, x1 = 0.6934 | 738.371 | –
278.15 K, x1 = 0.7072 | – | 0.492
278.15 K, x1 = 0.7967 | 743.56 | –
278.15 K, x1 = 0.7981 | – | 0.462
278.15 K, x1 = 0.8941 | – | 0.442
278.15 K, x1 = 0.8975 | 749.42 | –
283.15 K, x1 = 0.1019 | – | 0.597
283.15 K, x1 = 0.1059 | 713.046 | –
283.15 K, x1 = 0.2123 | 715.938 | –
283.15 K, x1 = 0.2189 | – | 0.568
283.15 K, x1 = 0.3019 | 718.644 | –
283.15 K, x1 = 0.3026 | – | 0.545
283.15 K, x1 = 0.4029 | – | 0.523
283.15 K, x1 = 0.4099 | 722.208 | –
283.15 K, x1 = 0.4995 | – | 0.501
283.15 K, x1 = 0.5053 | 725.756 | –
283.15 K, x1 = 0.6005 | 729.573 | –
283.15 K, x1 = 0.6099 | – | 0.483
283.15 K, x1 = 0.6934 | 733.719 | –
283.15 K, x1 = 0.7072 | – | 0.462
283.15 K, x1 = 0.7967 | 738.766 | –
283.15 K, x1 = 0.7981 | – | 0.435
283.15 K, x1 = 0.8941 | – | 0.417
283.15 K, x1 = 0.8975 | 744.471 | –
288.15 K, x1 = 0.1019 | – | 0.559
288.15 K, x1 = 0.1059 | 708.972 | –
288.15 K, x1 = 0.2123 | 711.779 | –
288.15 K, x1 = 0.2189 | – | 0.533
288.15 K, x1 = 0.3019 | 714.403 | –
288.15 K, x1 = 0.3026 | – | 0.514
288.15 K, x1 = 0.4029 | – | 0.492
288.15 K, x1 = 0.4099 | 717.859 | –
288.15 K, x1 = 0.4995 | – | 0.471
288.15 K, x1 = 0.5053 | 721.306 | –
288.15 K, x1 = 0.6005 | 725.009 | –
288.15 K, x1 = 0.6099 | – | 0.454
288.15 K, x1 = 0.6934 | 729.044 | –
288.15 K, x1 = 0.7072 | – | 0.435
288.15 K, x1 = 0.7967 | 733.942 | –
288.15 K, x1 = 0.7981 | – | 0.41
288.15 K, x1 = 0.8941 | – | 0.393
288.15 K, x1 = 0.8975 | 739.489 | –
293.15 K, x1 = 0.1019 | – | 0.525
293.15 K, x1 = 0.1059 | 704.884 | –
293.15 K, x1 = 0.2123 | 707.601 | –
293.15 K, x1 = 0.2189 | – | 0.501
293.15 K, x1 = 0.3019 | 710.139 | –
293.15 K, x1 = 0.3026 | – | 0.483
293.15 K, x1 = 0.4029 | – | 0.464
293.15 K, x1 = 0.4099 | 713.488 | –
293.15 K, x1 = 0.4995 | – | 0.445
293.15 K, x1 = 0.5053 | 716.833 | –
293.15 K, x1 = 0.6005 | 720.419 | –
293.15 K, x1 = 0.6099 | – | 0.428
293.15 K, x1 = 0.6934 | 724.332 | –
293.15 K, x1 = 0.7072 | – | 0.411
293.15 K, x1 = 0.7967 | 729.066 | –
293.15 K, x1 = 0.7981 | – | 0.388
293.15 K, x1 = 0.8941 | – | 0.372
293.15 K, x1 = 0.8975 | 734.467 | –
298.15 K, x1 = 0.1019 | – | 0.495
298.15 K, x1 = 0.1059 | 700.768 | –
298.15 K, x1 = 0.2123 | 703.393 | –
298.15 K, x1 = 0.2189 | – | 0.473
298.15 K, x1 = 0.3019 | 705.856 | –
298.15 K, x1 = 0.3026 | – | 0.455
298.15 K, x1 = 0.4029 | – | 0.439
298.15 K, x1 = 0.4099 | 709.092 | –
298.15 K, x1 = 0.4995 | – | 0.42
298.15 K, x1 = 0.5053 | 712.324 | –
298.15 K, x1 = 0.6005 | 715.799 | –
298.15 K, x1 = 0.6099 | – | 0.405
298.15 K, x1 = 0.6934 | 719.586 | –
298.15 K, x1 = 0.7072 | – | 0.388
298.15 K, x1 = 0.7967 | 724.172 | –
298.15 K, x1 = 0.7981 | – | 0.367
